This is an account of results in publication PMC6019134, “1,2,6-Thiadiazinones as Novel Narrow Spectrum Calcium/Calmodulin-Dependent Protein Kinase Kinase 2 (CaMKK2) Inhibitors” (Molecules : A Journal of Synthetic Chemistry and Natural …, 2018).

One series concerns the target T1, CHEK2 (Homo sapiens, UniProt O96017).
T1 construct: purchased in-house (home-made panel, SGC-style construct names)
Put plainly: DSF thermal shift, kinase panel. Format: binding. The conditions noted are these: 10 μM compound. The gist of the method: (§1)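 DSF: 1 µM tag-cleaved kinase, 10 µM cpd, 100 mM K2HPO4 pH 7.5/150 mM NaCl/10% glycerol + dye; 5 min 25 °C, ramp to 95 °C @ 0.05 °C/s; dTm vs 0.2% DMSO, Boltzmann fit.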

In the next series the target is T2, GSG2A (Homo sapiens, UniProt Q8TF76).
T2 construct: purchased in-house (home-made panel, SGC-style construct names)
T2 sequence (Q8TF76 1-798): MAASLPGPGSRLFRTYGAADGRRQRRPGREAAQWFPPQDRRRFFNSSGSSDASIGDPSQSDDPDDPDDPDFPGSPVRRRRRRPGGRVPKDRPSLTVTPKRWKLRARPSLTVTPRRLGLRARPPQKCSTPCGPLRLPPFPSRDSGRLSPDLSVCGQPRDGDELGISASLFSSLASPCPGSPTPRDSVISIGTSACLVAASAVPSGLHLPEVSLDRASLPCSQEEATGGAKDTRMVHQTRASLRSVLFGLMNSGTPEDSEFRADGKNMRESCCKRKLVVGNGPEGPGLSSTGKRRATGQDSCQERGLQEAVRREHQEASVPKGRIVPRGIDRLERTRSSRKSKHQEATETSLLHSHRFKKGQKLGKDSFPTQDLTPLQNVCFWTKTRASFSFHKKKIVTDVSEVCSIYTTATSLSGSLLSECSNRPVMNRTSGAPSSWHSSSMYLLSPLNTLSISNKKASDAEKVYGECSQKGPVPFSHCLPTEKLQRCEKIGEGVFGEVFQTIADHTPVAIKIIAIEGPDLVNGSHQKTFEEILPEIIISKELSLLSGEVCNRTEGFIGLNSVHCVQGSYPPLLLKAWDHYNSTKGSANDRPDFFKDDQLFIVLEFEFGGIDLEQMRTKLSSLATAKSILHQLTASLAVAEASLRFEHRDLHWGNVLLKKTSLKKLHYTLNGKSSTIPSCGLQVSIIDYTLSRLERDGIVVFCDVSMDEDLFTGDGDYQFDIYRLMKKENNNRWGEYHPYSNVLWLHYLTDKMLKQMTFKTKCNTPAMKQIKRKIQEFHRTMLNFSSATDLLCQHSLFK
The series is described as follows: DSF thermal shift, kinase panel. The conditions noted are these: 10 μM compound. Format: binding. The gist of the method: as §1

For another series, the target named is T3, PIM1A (Homo sapiens, UniProt P11309).
T3 construct: purchased in-house (home-made panel, SGC-style construct names)
T3 sequence (P11309 whole entry): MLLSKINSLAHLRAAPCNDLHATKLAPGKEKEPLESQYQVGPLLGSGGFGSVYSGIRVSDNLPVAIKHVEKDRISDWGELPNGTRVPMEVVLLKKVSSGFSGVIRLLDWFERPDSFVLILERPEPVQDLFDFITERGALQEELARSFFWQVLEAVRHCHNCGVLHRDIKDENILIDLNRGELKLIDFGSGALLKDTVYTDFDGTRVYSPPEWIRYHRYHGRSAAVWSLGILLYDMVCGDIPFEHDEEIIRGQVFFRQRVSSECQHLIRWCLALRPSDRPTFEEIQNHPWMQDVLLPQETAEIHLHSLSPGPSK
Put plainly: DSF thermal shift, kinase panel. Format: binding. The conditions noted are these: 10 μM compound. The gist of the method: as §1

In a further series the target is T4, RPS6KA6A (Homo sapiens, UniProt Q9UK32).
T4 construct: purchased in-house (home-made panel, SGC-style construct names)
T4 sequence (Q9UK32 whole entry): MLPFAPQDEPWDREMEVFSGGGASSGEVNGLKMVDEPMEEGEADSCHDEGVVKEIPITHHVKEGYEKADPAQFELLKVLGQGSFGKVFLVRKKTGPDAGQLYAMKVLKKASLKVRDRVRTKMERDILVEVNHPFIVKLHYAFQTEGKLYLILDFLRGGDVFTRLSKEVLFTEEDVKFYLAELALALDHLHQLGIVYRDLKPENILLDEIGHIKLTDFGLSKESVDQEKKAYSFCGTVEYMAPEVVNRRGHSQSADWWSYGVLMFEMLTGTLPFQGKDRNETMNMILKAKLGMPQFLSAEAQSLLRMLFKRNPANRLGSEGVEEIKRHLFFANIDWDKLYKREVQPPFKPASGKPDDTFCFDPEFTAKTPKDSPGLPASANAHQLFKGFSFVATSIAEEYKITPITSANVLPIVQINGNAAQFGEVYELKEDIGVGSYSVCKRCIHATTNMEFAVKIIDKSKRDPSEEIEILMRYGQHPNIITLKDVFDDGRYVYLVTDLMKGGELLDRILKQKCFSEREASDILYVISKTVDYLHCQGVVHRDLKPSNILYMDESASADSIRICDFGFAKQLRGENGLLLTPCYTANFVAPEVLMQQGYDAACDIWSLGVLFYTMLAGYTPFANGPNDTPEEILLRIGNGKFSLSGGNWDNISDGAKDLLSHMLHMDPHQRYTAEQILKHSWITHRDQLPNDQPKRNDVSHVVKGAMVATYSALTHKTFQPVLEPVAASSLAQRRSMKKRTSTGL
The series is described as follows: DSF thermal shift, kinase panel. The conditions noted are these: 10 μM compound. Format: binding. The gist of the method:
as §1

Series [1] relates to panel of 46 protein kinases. Put plainly: DSF kinome selectivity panel, hits over 2 °C. The conditions noted are these: 10 μM compound, average of 4 experiments; for Kinases Hit DSF > 2 °C: names of the kinases hit, 46 kinases; for Number of Kinases Hit DSF > 2 °C: of 46 kinases. Format: binding. Here is the method: The corresponding dianilino-TDZs (1–5) were tested on a panel of 46 protein kinases representing the major kinome branches at a concentration of 10 μM using a Differential Scanning Fluorimetry (DSF). Only analogues 1–3 induced a significant (>2 °C) thermal shift when incubated with a subset of the proteins (Table 1).
Kinase selectivity assay—A home-made kinase panel was generated for the following enzymes: AAK1, BMP2K, BMX, BRAF, CAMK1D, CAMK1G, CAMKK1, CAMKK2B, CDC42BPA, CDK2, CDKL1, CHEK2, CLK1, CSNK1G1, CSNK1G3, CSNK2A1, DYRK1A, DYRK2A, EPHA2, GAK, GSG2, MAPK1, MAP2K7, MAPK14B, MAPK3, PHKG2, PIM1, PLK1, PKMYT1, PRPF4B, RPS6KA1A, RPS6KA5A, RPS6KA6A, SLK, SRPK1, SRPK2, STK3, STK6, STK10, STK17A, STK24, STK38L, TRIB2, TTK, VRK1 and VRK2. Proteins were produced in E. coli, purified in a Ni-chelate column, followed by overnight digestion using TEV protease (made in house with an N-terminal 6xHis tag) and dialysis to remove imidazole. To clear samples of uncleaved proteins and the TEV protease, samples were loaded on new Ni-chelate columns. The flow through was collected, concentrated and loaded to a HiLoad Superdex 200 16/600 column (GE Healthcare, Chicago, IL, USA) for final polishing and buffer exchange.
Starting from 100 µM protein stocks, our kinase panel enzymes were diluted to 1 µM in buffer 100 mM K2HPO4 pH 7.5 containing 150 mM NaCl, 10% glycerol and 5X dye (Applied Biosystems catalogue 4461806). The protein/dye mixture was transferred to a 384-well PCR microplate having 20 µL per well. Compounds in DMSO at 10 mM concentration were added in 20 nL volume, using a liquid handling device setup with a pin head, to make 10 µM compound concentration in the assay plate.
Protein thermal shift data was measured in a qPCR instrument (Applied Biosystems QuantStudio 6) programmed to equilibrate the plate at 25 °C for 5 min followed by ramping the temperature to 95 °C at a rate of 0.05 °C/s. Data was processed using Protein Thermal shift software (Applied Biosystems) by fitting experimental curves to a Boltzmann function to calculate differential thermal shifts (dTm) referenced to protein/dye in 0.2% DMSO.

Series [2] has as its target T5, CAMKK2 kinase domain (132–470) (Homo sapiens, UniProt Q96RR4).
T5 construct: CAMKK2 kinase domain (132–470) was cloned in a pNIC-Bio2 vector; 10xHis tag followed by a TEV site (N, cleaved yes); made in house; host or cells: E. coli BL21(DE3)-R3-BirA
Put plainly: CaMKK2B TR-FRET tracer displacement assay. Format: binding. The conditions noted are these: CaMKK2, displacement of tracer 236, average of 2 experiments.
Excerpt: To more accurately determine the relative changes in potency of the TDZ analogues and to enable measurement of accurate IC50^’s, we developed a Time-Resolved Fluorescence Resonance Energy Transfer (TR-FRET) assay. The TR-FRET tracer displacement assays were generated using a protocol derived from the Lanthascreen binding assays (ThermoFisher Scientific, Waltham, MA, USA) [21].

pIC50: −log10 of the molar value. Entries after “also recorded” stand apart in the source; their conditions may differ.

T5 sequence (Q96RR4 132-470): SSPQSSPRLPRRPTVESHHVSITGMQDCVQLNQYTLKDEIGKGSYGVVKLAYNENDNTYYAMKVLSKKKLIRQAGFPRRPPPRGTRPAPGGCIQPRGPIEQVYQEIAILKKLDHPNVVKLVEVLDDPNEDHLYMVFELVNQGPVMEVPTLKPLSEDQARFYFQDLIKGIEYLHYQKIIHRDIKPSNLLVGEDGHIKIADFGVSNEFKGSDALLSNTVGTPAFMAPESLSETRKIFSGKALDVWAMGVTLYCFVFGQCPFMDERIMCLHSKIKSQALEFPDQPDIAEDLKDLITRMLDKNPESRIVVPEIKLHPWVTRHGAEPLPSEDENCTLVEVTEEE
T1 sequence (O96017 whole entry): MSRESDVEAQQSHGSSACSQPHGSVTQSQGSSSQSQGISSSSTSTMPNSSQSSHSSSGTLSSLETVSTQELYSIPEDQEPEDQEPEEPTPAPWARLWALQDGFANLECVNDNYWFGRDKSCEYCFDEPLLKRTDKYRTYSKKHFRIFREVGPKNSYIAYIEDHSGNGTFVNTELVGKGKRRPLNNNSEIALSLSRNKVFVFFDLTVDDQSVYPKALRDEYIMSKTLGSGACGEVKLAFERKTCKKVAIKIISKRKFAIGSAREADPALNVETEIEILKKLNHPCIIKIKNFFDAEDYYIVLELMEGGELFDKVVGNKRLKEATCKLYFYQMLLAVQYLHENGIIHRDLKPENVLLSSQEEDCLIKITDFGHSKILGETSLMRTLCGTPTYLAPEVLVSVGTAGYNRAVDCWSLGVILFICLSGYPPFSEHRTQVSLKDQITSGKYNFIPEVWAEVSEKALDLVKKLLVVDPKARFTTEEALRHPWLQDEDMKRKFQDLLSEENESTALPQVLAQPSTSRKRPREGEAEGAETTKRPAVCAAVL

Turning to `Cc1ccc(Nc2nsnc(Nc3cccc(C(N)=O)c3)c2=O)cc1O` [Compound 1, 3-({5-[(3-Hydroxy-4-methylphenyl)amino]-4-oxo-4H-1,2,6-thiadiazin-3-yl}amino)benzamide], the ΔTm at 10 µM on CHEK2 was determined as 0.6 °C; at GSG2A, 0.6 °C; at PIM1A, 1 °C; on RPS6KA6A, 0.5 °C. Also, the “Kinases Hit DSF > 2 °C” value in series [1] is “TRIB2”. Further, the “Number of Kinases Hit DSF > 2 °C” value in series [1] amounted to 1. Further, the pIC50 in series [2] is < 4.30.

Turning to `Cc1ccc(Nc2nsnc(Nc3ccc(C(N)=O)cc3)c2=O)cc1O` [Compound 2, 4-({5-[(3-Hydroxy-4-methylphenyl)amino]-4-oxo-4H-1,2,6-thiadiazin-3-yl}amino)benzamide], the melting point is > 300 °C. Also, the ΔTm at 10 µM at CHEK2 is 3.1 °C. Besides, at GSG2A, the ΔTm at 10 µM came out at 1.3 °C. The ΔTm at 10 µM on PIM1A was 3.5 °C. Moreover, at RPS6KA6A, the ΔTm at 10 µM came to 2.6 °C. Besides, in series [1], the “Kinases Hit DSF > 2 °C” value is on record as “CAMK1D/G/K1/K2B, CDC42BPA, CDK2; also recorded: CHEK2, DYRK2, MAP2K7, PHKG2; also recorded: PIM1, PKMYT1, RPSKA6, STK3, STK17, TTK” and the “Number of Kinases Hit DSF > 2 °C” value is 16. Moreover, the pIC50 in series [2] is < 4.30.

`Cc1ccc(Nc2nsnc(Nc3ccc4c(c3)CS(=O)(=O)C4)c2=O)cc1O` [Compound 3, 3-[(2,2-Dioxido-1,3-dihydrobenzo[c]thiophen-5-yl)amino]-5-[(3-hydroxy-4-methylphenyl)amino]-4H-1,2,6-thiadiazin-4-one]: the melting point was > 300 °C. For the same compound, the ΔTm at 10 µM at CHEK2 was found to be 1.6 °C. The ΔTm at 10 µM at GSG2A was 1.2 °C. Moreover, the ΔTm at 10 µM on PIM1A is 4.1 °C. Also, the ΔTm at 10 µM on RPS6KA6A is 0.9 °C. In addition, in series [1], the “Kinases Hit DSF > 2 °C” value is “STK10, TRIB2, TTK; also recorded: CAMK1G/2B, CDC42BPA,; also recorded: CLK1, MAP2K7, PIM1,” and the “Number of Kinases Hit DSF > 2 °C” value was determined as 9. Moreover, the negative logarithm of the IC50 (pIC50) in series [2] is 4.47.

Take `CNC(=O)c1ccccc1Nc1nsnc(Nc2cccc(CS(C)(=O)=O)c2)c1=O` [Compound 4, N-Methyl-2-([5-({3-[(methylsulfonyl)methyl]phenyl}amino)-4-oxo-4H-1,2,6-thiadiazin-3-yl]-amino}-benzamide]: the melting point is > 300 °C. Besides, the ΔTm at 10 µM at CHEK2 came to 0.6 °C. Moreover, the ΔTm at 10 µM on GSG2A was 0.4 °C. Moreover, the ΔTm at 10 µM at PIM1A is -0.7 °C. In addition, the ΔTm at 10 µM at RPS6KA6A was -0.3 °C. Also, in series [1], the “Number of Kinases Hit DSF > 2 °C” value was 0.

`CNC(=O)c1ccccc1Nc1nsnc(Nc2ccc(N3CCOCC3)cc2)c1=O` [Compound 5, N-Methyl-2-({5-[(4-morpholinophenyl)amino]-4-oxo-4H-1,2,6-thiadiazin-3-yl}amino)benzamide] gave a melting point of 285 to 287 °C. For the same compound, the ΔTm at 10 µM on CHEK2 came out at 0.8 °C. Also, the ΔTm at 10 µM on GSG2A amounted to 0.3 °C. For the same compound, at PIM1A, the ΔTm at 10 µM is -0.2 °C. Moreover, the ΔTm at 10 µM on RPS6KA6A was -0.6 °C. Further, the “Number of Kinases Hit DSF > 2 °C” value in series [1] is recorded as 0.
